Assays:
Type in all cases: in vivo
[1] = tested on: barnyardgrass (Echinochloa crus-galli); assay: Test B flooded paddy test, barnyardgrass; details: 250 g ai/ha, applied to paddy water, visual rating after 13 to 15 days, scale 0 (no effect) to 100 (complete control)
From the text: (§1) At time of treatment, test pots were flooded to 3 cm above the soil surface, treated by application of test compounds directly to the paddy water, and then maintained at that water depth for the duration of the test. Treated plants and controls were maintained in a greenhouse for 13 to 15 days, after which time all species were compared to controls and visually evaluated. […] A dash (-) response means no test result.

[2] = tested on: barnyardgrass (Echinochloa crus-galli); assay: Test A postemergence, barnyardgrass; details: visual injury, 0 to 100 scale (0 no effect, 100 complete control), approximately 10 days
Procedure, shortened: (§2)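 Greenhouse test: compounds in solvent with surfactant sprayed onto loam–sand soil after planting (preemergence) or onto plants 2-10 cm at the one- to two-leaf stage (postemergence). Injury visually rated versus untreated controls after about 10 days on a 0-100 scale (100 = complete control).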

[3] = tested on: ryegrass, Italian (Lolium multiflorum); assay: Test A preemergence, Italian ryegrass; details: 0 to 100 scale (0 no effect, 100 complete control)
Procedure, shortened: as §2

[4] = tested on: pigweed (Amaranthus retroflexus); assay: Test A preemergence, pigweed; details: 0 to 100 scale (0 no effect, 100 complete control)
Procedure, shortened: as §2

[5] = tested on: foxtail, giant (Setaria faberii); assay: Test A postemergence, giant foxtail; details: visual injury, 0 to 100 scale (0 no effect, 100 complete control), approximately 10 days
Procedure, shortened: as §2

[6] = tested on: sedge, umbrella (small-flower umbrella sedge, Cyperus difformis); assay: Test B flooded paddy test, umbrella sedge; details: 250 g ai/ha, applied to paddy water, visual rating after 13 to 15 days, scale 0 (no effect) to 100 (complete control)
From the text: as §1

[7] = tested on: ragweed (common ragweed, Ambrosia elatior); assay: Test A preemergence, ragweed; details: 0 to 100 scale (0 no effect, 100 complete control)
Procedure, shortened: as §2

[8] = tested on: barnyardgrass (Echinochloa crus-galli); assay: Test A preemergence, barnyardgrass; details: 0 to 100 scale (0 no effect, 100 complete control)
Procedure, shortened: as §2

[9] = tested on: foxtail, giant (Setaria faberii); assay: Test A preemergence, giant foxtail; details: 0 to 100 scale (0 no effect, 100 complete control)
Procedure, shortened: as §2

kochia (Kochia scoparia) [10] = assay: Test A postemergence, kochia; details: visual injury, 0 to 100 scale (0 no effect, 100 complete control), approximately 10 days
Procedure, shortened: as §2

[11] = tested on: ryegrass, Italian (Lolium multiflorum); assay: Test A postemergence, Italian ryegrass; details: visual injury, 0 to 100 scale (0 no effect, 100 complete control), approximately 10 days
Procedure, shortened: as §2

kochia (Kochia scoparia) [12] = assay: Test A preemergence, kochia; details: 0 to 100 scale (0 no effect, 100 complete control)
Procedure, shortened: as §2

[13] = tested on: ducksalad (Heteranthera limosa); assay: Test B flooded paddy test, ducksalad; details: 250 g ai/ha, applied to paddy water, visual rating after 13 to 15 days, scale 0 (no effect) to 100 (complete control)
From the text: as §1

[14] = tested on: pigweed (Amaranthus retroflexus); assay: Test A postemergence, pigweed; details: visual injury, 0 to 100 scale (0 no effect, 100 complete control), approximately 10 days
Procedure, shortened: as §2

[15] = tested on: galium (catchweed bedstraw, Galium aparine); assay: Test A postemergence, galium; details: visual injury, 0 to 100 scale (0 no effect, 100 complete control), approximately 10 days
Procedure, shortened: as §2

[16] = tested on: wheat (Triticum aestivum); assay: Test A postemergence, wheat; details: visual injury, 0 to 100 scale (0 no effect, 100 complete control), approximately 10 days
Procedure, shortened: as §2

corn (Zea mays) = assay: Test A postemergence, corn; details: visual injury, 0 to 100 scale (0 no effect, 100 complete control), approximately 10 days
Procedure, shortened: as §2

[17] = tested on: ragweed (common ragweed, Ambrosia elatior); assay: Test A postemergence, ragweed; details: visual injury, 0 to 100 scale (0 no effect, 100 complete control), approximately 10 days
Procedure, shortened: as §2

rice (Oryza sativa) = assay: Test B flooded paddy test, rice; details: 250 g ai/ha, applied to paddy water, visual rating after 13 to 15 days, scale 0 (no effect) to 100 (complete control)
From the text: as §1

[18] = tested on: blackgrass (Alopecurus myosuroides); assay: Test A postemergence, blackgrass; details: visual injury, 0 to 100 scale (0 no effect, 100 complete control), approximately 10 days
Procedure, shortened: as §2

Compound | Plant response rating, Barnyardgrass (Flood) [1] | Plant response rating, Barnyardgrass ([2]; 125 g ai/ha) | Plant response rating, Barnyardgrass ([2]; 500 g ai/ha) | Plant response rating, Ryegrass, Italian ([3]; 125 g ai/ha) | Plant response rating, Ryegrass, Italian ([3]; 500 g ai/ha) | Plant response rating, Pigweed ([4]; 125 g ai/ha) | Plant response rating, Pigweed ([4]; 500 g ai/ha) | Plant response rating, Foxtail, Giant ([5]; 125 g ai/ha) | Plant response rating, Foxtail, Giant ([5]; 500 g ai/ha) | Plant response rating, Sedge, Umbrella (Flood) [6] | Plant response rating, Ragweed ([7]; 125 g ai/ha) | Plant response rating, Ragweed ([7]; 500 g ai/ha) | Plant response rating, Barnyardgrass ([8]; 125 g ai/ha) | Plant response rating, Barnyardgrass ([8]; 500 g ai/ha) | Plant response rating, Foxtail, Giant ([9]; 125 g ai/ha) | Plant response rating, Foxtail, Giant ([9]; 500 g ai/ha) | Plant response rating, Kochia (kochia (Kochia scoparia) [10]; 125 g ai/ha) | Plant response rating, Kochia (kochia (Kochia scoparia) [10]; 500 g ai/ha) | Plant response rating, Ryegrass, Italian ([11]; 125 g ai/ha) | Plant response rating, Ryegrass, Italian ([11]; 500 g ai/ha) | other results
CN1CC(c2cccc(Oc3ccc(C(F)(F)F)cn3)c2)C(C(=O)Nc2ccccc2F)C1=O (single isomer, unassigned) [Compound 43] | 50 | 90 | 90 | 30 | 80 | 40 | 80 | 80 | 80 | 0 | 0 | 80 | 80 | 80 | 90 | 90 | 40 | 60 | 0 | 30 | Plant response rating, Kochia (kochia (Kochia scoparia) [12]; 125 g ai/ha): 30; Plant response rating, Kochia (kochia (Kochia scoparia) [12]; 500 g ai/ha): 30; Plant response rating, Ducksalad (Flood) [13]: 98; Plant response rating, Pigweed ([14]; 125 g ai/ha): 30; Plant response rating, Pigweed ([14]; 500 g ai/ha): 50; Plant response rating, Galium ([15]; 125 g ai/ha): 70; Plant response rating, Galium ([15]; 500 g ai/ha): 80; Plant response rating, Wheat ([16]; 125 g ai/ha): 30; Plant response rating, Wheat ([16]; 500 g ai/ha): 50; Plant response rating, Corn (corn (Zea mays); 125 g ai/ha): 40; Plant response rating, Corn (corn (Zea mays); 500 g ai/ha): 80; Plant response rating, Ragweed ([17]; 125 g ai/ha): 0; Plant response rating, Ragweed ([17]; 500 g ai/ha): 0; Plant response rating, Rice (Flood) (rice (Oryza sativa)): 15; Plant response rating, Blackgrass ([18]; 125 g ai/ha): 30; Plant response rating, Blackgrass ([18]; 500 g ai/ha): 50
CN1CC(c2cccc(Oc3ccc(C(F)(F)F)cn3)c2)C(C(=O)Nc2cccc(F)c2F)C1=O (single isomer, unassigned) [Compound 44] | 40 | 90 | 90 | 30 | 90 | 30 | 80 | 70 | 80 | 0 | 0 | 60 | 80 | 80 | 90 | 90 | 30 | 60 | 0 | 30 | Plant response rating, Kochia (kochia (Kochia scoparia) [12]; 125 g ai/ha): 0; Plant response rating, Kochia (kochia (Kochia scoparia) [12]; 500 g ai/ha): 0; Plant response rating, Ducksalad (Flood) [13]: 90; Plant response rating, Pigweed ([14]; 125 g ai/ha): 50; Plant response rating, Pigweed ([14]; 500 g ai/ha): 80; Plant response rating, Galium ([15]; 125 g ai/ha): 70; Plant response rating, Galium ([15]; 500 g ai/ha): 80; Plant response rating, Wheat ([16]; 125 g ai/ha): 0; Plant response rating, Wheat ([16]; 500 g ai/ha): 50; Plant response rating, Corn (corn (Zea mays); 125 g ai/ha): 40; Plant response rating, Corn (corn (Zea mays); 500 g ai/ha): 80; Plant response rating, Ragweed ([17]; 125 g ai/ha): 0; Plant response rating, Ragweed ([17]; 500 g ai/ha): 0; Plant response rating, Rice (Flood) (rice (Oryza sativa)): 0; Plant response rating, Blackgrass ([18]; 125 g ai/ha): 30; Plant response rating, Blackgrass ([18]; 500 g ai/ha): 50

— US10405547B2, “Substituted cyclic amides as herbicides” (FMC Corporation, priority 2015, dated 2019)
